Measured values: ChEMBL document CHEMBL1148132, “Abietane diterpenoids from Coleus xanthanthus” (J Nat Prod, 2002)
In brackets after ≈: the same amount, converted by molar mass.

system: K562; assay: Cytotoxicity against human K562 cells after 48 hrs by MTT assay; format: functional, cell-based; conditions: K562, 48 h

Row | SMILES | IC50 [µg/mL]
1 | CC(C)C1=C(O)C(=O)C([C@@]2(C)CCCC(C)(C)C2=O)=C(C(=O)O)C1=O [XANTHANTHUSIN E] | 34.3 (≈ 98.5 µM)
2 | CC(C)C1=C(O)C(=O)[C@@]23O[C@@]2(C(=O)C(O)=C2C(C)(C)CCC[C@@]23C)C1=O | 13.9 (≈ 38.6 µM)
3 | CC(C)C1=C(O)C(=O)C2=C(C(=O)C(O)=C3C(C)(C)CCC[C@]23C)C1=O | 3 (≈ 8.71 µM)
4 | CC(=O)OCC(C)C1=C(OC(C)=O)C(=O)C2=C(C(=O)C(O)=C3C(C)(C)CCC[C@]23C)C1=O (stereo partly specified) [XANTHANTHUSIN H] | 12.9 (≈ 29 µM)
5 | CC(=O)Oc1c(O)c(C(C)C)c(O)c2c1[C@@]1(C)CCCC(C)(C)C1=C(O)C2=O | 2.2 (≈ 5.66 µM)
6 | O=C1c2c(O)ccc(O)c2C(=O)c2c(NCCNCCO)ccc(NCCNCCO)c21 [MITOXANTRONE] | 2 (≈ 4.5 µM)
